Measurements published in patent US20020137655A1, “Use of haloperoxidase, peroxide and carboxylic acid” (Novozymes A/S, priority 2000, published 2002).

Tested on: Escherichia coli (DSM 1576)
Assay: Antibacterial activity of haloperoxidase, hydrogen peroxide and a buffer compound against Escherichia coli cells (conductance measurement, Malthus)
Format: cell-based
Conditions: for Log CFU/ml (reduction in number of living bacterial cells): buffer 50 mM, 40° C., 20 minutes, approx. 10^6 CFU/ml; for bactericidal activity: carboxylic acid as buffer with haloperoxidase and hydrogen peroxide (Table 1), log CFU/ml reduction of more than 6 units corresponds to 100%
Method: Antimicrobial activity may be measured in terms of the number of log reductions. The term “log reduction” is defined as a logarithmic reduction of the number of living cells, e.g. 1 log reduction corresponds to a reduction in living cell number of Escherichia coli DSM1576 or Enterococcus faecalis DSM2570 from Y×10^X CFU/M (CFU: […] The number of living bacteria are to be determined as the number of E. coli or E. faecalis, respectively, which can grow on Tryptone Soya Agar plates at 30° C. The antibacterial activity of a system composed of a haloperoxidase and hydrogen peroxide were tested in a variety of buffers (including both carboxylic acids and other buffer compounds) and pH against Escherichia coli (DSM 1576). The E. coli cells were grown in Brain Heart Infusion broth (BHI) until stationary growth phase (30° C., 20 hours). […] Subsequently the solution was incubated in a 96-well MicroWell plate (Nunc A/S, Denmark) at 40° C. in 20 minutes. […] The detection times measured by the Malthus instrument were converted to CFU/ml by a calibration curve.

[1] = pH 7, rCvP 0.1 mg/L, H2O2 0.25 mM
[2] = pH 6, rCvP 0.5 mg/L, H2O2 0.5 mM
[3] = pH 5, rCvP 0.5 mg/L, H2O2 0.5 mM

## Tris(hydroxymethyl)amino-methane [Tris(hydroxymethyl)amino-methane (TRIS)]
[1]
  Log CFU/ml (reduction in number of living bacterial cells): 0.3 Log CFU/ml
pH 8, rCvP 1 mg/L, H2O2 1 mM
  Log CFU/ml (reduction in number of living bacterial cells): 0.5 Log CFU/ml

## O=S(=O)(O)CCN1CCN(CCO)CC1 [HEPES]
[1]
  Log CFU/ml (reduction in number of living bacterial cells): 0.7 Log CFU/ml
pH 8, rCvP 1 mg/L, H2O2 1 mM
  Log CFU/ml (reduction in number of living bacterial cells): 0.6 Log CFU/ml

## O=P([O-])(O)O.[K+] [KH2PO4]
[1]
  Log CFU/ml (reduction in number of living bacterial cells): 0.3 Log CFU/ml
pH 8, rCvP 1 mg/L, H2O2 1 mM
  Log CFU/ml (reduction in number of living bacterial cells): 0.4 Log CFU/ml

## O=S(=O)(O)CCN1CCOCC1 [2-(N-morpholino) ethanesulfonic acid]
[2]
  Log CFU/ml (reduction in number of living bacterial cells): 0.6 Log CFU/ml

## O=C(O)CC(O)(CC(=O)O)C(=O)O [Citric acid]
[3]
  Log CFU/ml (reduction in number of living bacterial cells): 6.4 Log CFU/ml
  bactericidal activity: 100%

## CC(=O)O [Acetic acid]
[3]
  Log CFU/ml (reduction in number of living bacterial cells): 6.0 Log CFU/ml
  bactericidal activity: 100%

## CC(C)(CC(=O)O)CC(=O)O [Dimethylglutaric acid (DMG), Dimethylglutaric acid]
[2]
  Log CFU/ml (reduction in number of living bacterial cells): 6.7 Log CFU/ml
[1]
  Log CFU/ml (reduction in number of living bacterial cells): 7.3 Log CFU/ml
  bactericidal activity: 100%
